Experiment [1] concerns Pseudomonas aeruginosa (ATCC #10145). Briefly: Minimum Inhibitory Concentration (MIC) testing by microbroth dilution. The following applies: ATCC10145, 72 h, 1x Nutrient Broth, 35° C., 3 days, no growth via turbidity. In kind it is cell-based.
The subject of experiment [2] is Alcaligenes faecalis (ATCC #25094), Enterobacter aerogenes (ATCC #13048), Escherichia coli (ATCC #11229), Pseudomonas aeruginosa (ATCC #10145) and Pseudomonas …. Briefly: Bacterial challenge test in laboratory-made wallboard joint compound. In kind it is cell-based. The following applies: 200 ppm total active.
Description: Because this bacterial challenge test is intended to test the performance of in-can preservatives during long-term storage, only the last day of each seven-day challenge is considered important. The test sample was inoculated with bacteria on the first day of each seven-day challenge.
Bacteria were inoculated into the laboratory-made test wallboard joint formulations at approximately 10^6 CFU/g at time equals zero on the first day of each seven-day cycle. Viability of the bacteria was monitored semi-quantitatively through streak analysis 1, 2, and 7 days after inoculation. This procedure was performed twice for a total of two to four seven-day cycles. A rating of “4” indicates heavy growth, while a rating of “0” indicates undetectable growth, defined as <10 CFU/g of material. Samples free of detectable growth after 7 days are considered to be well-preserved.
For comparison, a blank, unpreserved laboratory-made wallboard joint composition is shown, as well as a laboratory-made wallboard joint composition that is preserved with a commercial formaldehyde-producing preservative, comprising 78 wt % of 2,2′,2″-(hexahydro-1,3,5-triazine-1,3,5-triyl)-triethanol (HHT). The various preservatives were added to the laboratory-made wallboard joint compound at the levels shown, in ppm by weight.

Converted amounts (≈) assume the structure as drawn.

As for `O=c1[nH]sc2ccccc12` [BIT, 1,2-benzisothiazol-3(2H)-one], the lowest concentration to inhibit growth in experiment [1] (MIC) was 30.8 µg/mL (≈ 204 µM). Besides, the “Protection of wallboard joint compound in words” value in experiment [2] is recorded as “neither 200 ppm BIT nor Ziram alone being capable of protecting the wallboard joint compound”.

The values above are taken from patent US20190373892A1, “FORMALDEHYDE-FREE PRESERVATIVES FOR HIGHLY SUSCEPTIBLE PRODUCTS” (Troy Corporation, priority 2018, published 2019).
